Experimental data reported in ChEMBL document CHEMBL1687706, “Inhibition of human immunodeficiency virus type 1 replication in human cells by Debio-025, a novel cyclophilin binding agent” (Antimicrob Agents Chemother, 2008).
Calls of active or inactive are those of the source. The calls are words filed in the database; no cut-off is given here.

Experiments:
[1] = tested on: Human immunodeficiency virus 1; test: Antiviral activity against HIV1 subtype O BCF01 infected in human PBMC assessed as inhibition of viral replication by ELISA; assay type: functional, organism-based; conditions: Human immunodeficiency virus 1, subtype O BCF01
Hepatitis C virus = test: Antiviral activity against HCV infected in human Huh 5.2 cells assessed as reduction in viral RNA level by luciferase reporter gene assay; assay type: functional, organism-based, Hepacivirus hominis; conditions: Huh-5-2
cells = conditions: Mus musculus, PBMC
Human betaherpesvirus 5 = test: Antiviral activity against Human cytomegalovirus Davis infected in human embryonic lung cells assessed as reduction in viral yield; assay type: functional, organism-based; conditions: Human betaherpesvirus 5, Davis
[2] = Cytotoxicity against human HeLa cells; assay type: cell-based; conditions: read-out: TC50 (the source's name)
[3] = tested on: Human immunodeficiency virus 1; test: Antiviral activity against HIV1 subtype D 92UG046 infected in human PBMC assessed as inhibition of viral replication by ELISA; assay type: functional, organism-based; conditions: Human immunodeficiency virus 1, subtype D 92UG046
[4] = tested on: Human immunodeficiency virus 1; test: Antiviral activity against HIV1 subtype B NL4-3 infected in human PBMC assessed as inhibition of viral replication by ELISA; assay type: functional, organism-based; conditions: Human immunodeficiency virus 1, subtype B NL4-3
Rattus norvegicus [5] = test: Immunosuppressive activity in Sprague-Dawley rat […] model assessed as percent T lymphocytes at 10 mg/kg, po administered once daily for 28 days by flow cytometry; assay type: functional
[6] = tested on: Human papillomavirus type 16; test: Antiviral activity against HPV-16 infected in Caski cells assessed as inhibition of viral replication after 7 days; assay type: functional, Human papillomavirus 16
[7] = tested on: Human immunodeficiency virus 1; test: Antiviral activity against HIV1 subtype A 92UG037 infected in human PBMC assessed as inhibition of viral replication by ELISA; assay type: functional, organism-based; conditions: Human immunodeficiency virus 1, subtype A 92UG037
Human alphaherpesvirus 3 = test: Antiviral activity against VZV OKA infected in human embryonic lung cells assessed as inhibition of; assay type: functional, organism-based; conditions: Human alphaherpesvirus 3, OKA
[8] = tested on: Human immunodeficiency virus 1; test: Antiviral activity against HIV1 subtype B 92BR014 infected in human PBMC assessed as inhibition of viral replication by ELISA; assay type: functional, organism-based; conditions: Human immunodeficiency virus 1, subtype B 92BR014
[9] = tested on: Human immunodeficiency virus 1; test: Antiviral activity against HIV1 subtype B SF162 infected in human PBMC assessed as inhibition of viral replication by ELISA; assay type: functional; conditions: Human immunodeficiency virus 1, SF162 ISOLATE
Rattus norvegicus [10] = test: Immunosuppressive activity in Sprague-Dawley rat […] model assessed as IgM level at 25 mg/kg, po administered once daily for 28 days by ELISA; assay type: functional
SARS-CoV = test: Antiviral activity against SARS coronavirus infected in african green monkey Vero cells assessed as inhibition of viral replication; assay type: functional, organism-based; conditions: Severe acute respiratory syndrome-related coronavirus
Rattus norvegicus [11] = test: Immunosuppressive activity in Sprague-Dawley rat […] model assessed as percent T-helper cells at 10 mg/kg, po administered once daily for 28 days by flow cytometry; assay type: functional
Influenza B virus = test: Antiviral activity against influenza B virus infected in MDCK cells assessed as inhibition of viral replication; assay type: functional, organism-based
Rattus norvegicus [12] = test: Immunosuppressive activity in Sprague-Dawley rat […] model assessed as percent T lymphocytes at 50 mg/kg, po administered once daily for 28 days by flow cytometry; assay type: functional
[13] = Antiviral activity against HPV-33 infected in CK1 cells assessed as inhibition of viral replication after 3 days; assay type: functional, cell-based, Human papillomavirus type 33; conditions: human papillomavirus 33, CK1, 72 h; read-out: TC50 (the source's name)
[14] = tested on: Human immunodeficiency virus 1; test: Antiviral activity against HIV-1 NL4-3 cells infected in human TZB cells assessed as degradation of cDNA at 0.5 to 2.5 uM after 6 hrs postinfection by RT-PCR; assay type: functional, organism-based
[15] = tested on: Human immunodeficiency virus 1; test: Antiviral activity against APV, ATV, IDV, LPV, NFV, RTV, SQV, 3TC, FTC, ABC, AZT, d4T, ddC, ddI, TDF, EFV, DLV, NVP-resistant HIV-1 MDR769 infected in human PBMC assessed as inhibition of viral replication by ELISA; assay type: functional, organism-based; conditions: Human immunodeficiency virus 1, MDR769
[16] = Antiviral activity against HPV-18 infected in human HeLa cells assessed as inhibition of viral replication after 3 days; assay type: functional, cell-based; conditions: human papillomavirus 18, HeLa, 72 h; read-out: TC50 (the source's name)
Jurkat = test: Immunosuppressive activity in human Jurkat cells assessed as inhibition of PHA-phorbol myristate acetate induced beta-galactosidase activity at 21.5 uM; assay type: functional, cell-based
[17] = tested on: Human immunodeficiency virus 1; test: microbe, parasite or virus in culture; conditions: Human immunodeficiency virus 1, SF2
[18] = Cytotoxicity against MDCK cells; assay type: cell-based, Canis lupus familiaris; conditions: dog, read-out: TC50 (the source's name)
Vaccinia virus = test: Antiviral activity against Vaccinia virus infected in human embryonic lung cells assessed as reduction in viral yield measured after 3 days; assay type: functional, organism-based; conditions: Orthopoxvirus vaccinia, 72 h
Rattus norvegicus [19] = test: Immunosuppressive activity in Sprague-Dawley rat KHL model assessed as percent cytotoxic T cells at 25 mg/kg, po administered once daily for 28 days by flow cytometry; assay type: functional, T-cell
[20] = tested on: Human immunodeficiency virus 1; test: Antiviral activity against HIV-1 NL4-3 infected in human TZB cells assessed as inhibitory effect on the completion of viral double stranded DNA at 0.5 to 2.5 uM by RT-PCR; assay type: functional, organism-based
[21] = Cytotoxicity against CRFK; design: species or system Felis catus; conditions: cat, CRFK cells; read-out: TC50 (the source's name)
Human alphaherpesvirus 1 [22] = test: Antiviral activity against Herpes simplex virus 1 F infected in human embryonic lung cells assessed as inhibition of viral replication; assay type: functional, organism-based; conditions: Human alphaherpesvirus 1, strain F
[23] = tested on: Human immunodeficiency virus 1; test: Antiviral activity against HIV1 subtype B JR-CSF infected in human PBMC assessed as inhibition of viral replication by ELISA; assay type: functional; conditions: Human immunodeficiency virus 1, JRCSF ISOLATE
[24] = Cytotoxicity against human embryonic lung cells; assay type: cell-based; conditions: read-out: TC50 (the source's name)
Human alphaherpesvirus 2 = test: Antiviral activity against Herpes simplex virus 2 196 infected in human embryonic lung cells assessed as inhibition of viral replication; assay type: functional, organism-based; conditions: Human alphaherpesvirus 2, 196, lung
[25] = tested on: Human immunodeficiency virus 1; test: Antiviral activity against HIV1 subtype G Jv1083 infected in human PBMC assessed as inhibition of viral replication by ELISA; assay type: functional, organism-based; conditions: Human immunodeficiency virus 1, subtype G Jv1083
[26] = tested on: Human immunodeficiency virus 1; test: Antiviral activity against HIV1 subtype B Ba-L infected in human PBMC assessed as inhibition of viral replication by ELISA; assay type: functional, organism-based; conditions: Human immunodeficiency virus 1, subtype B Ba-L
[27] = tested on: Human immunodeficiency virus 1; test: microbe, parasite or virus in culture; conditions: Human immunodeficiency virus 1, 3B, MT4
[28] = Antiviral activity against HPV-18 infected in human HeLa cells assessed as inhibition of viral replication after 7 days; assay type: functional; conditions: human papillomavirus 18, HeLa, 168 h; read-out: TC50 (the source's name)
MT4 = test: Cytotoxicity against human MT4 cells at 0.83 uM by MTT assay; assay type: cell-based; conditions: mt4, 0.83 µM
[29] = tested on: Bovine viral diarrhea virus 1; test: Antiviral activity against BVDV infected in […] cells assessed as inhibition of viral replication; assay type: functional, organism-based; conditions: Bovine viral diarrhea virus isolates and strains
Human alphaherpesvirus 1 [30] = test: Antiviral activity against Herpes simplex virus 1 McIntyre infected in human embryonic lung cells assessed as inhibition of viral replication; assay type: functional, organism-based; conditions: Human alphaherpesvirus 1, McIntyre

Compound `C/C=C/C[C@@H](C)[C@@H](O)[C@H]1C(=O)N[C@@H](CC)C(=O)N(C)[C@H](C)C(=O)N(CC)[C@@H](C(C)C)C(=O)N[C@@H](C(C)C)C(=O)N(C)[C@@H](CC(C)C)C(=O)N[C@@H](C)C(=O)N[C@H](C)C(=O)N(C)[C@@H](CC(C)C)C(=O)N(C)[C@@H](CC(C)C)C(=O)N(C)[C@@H](C(C)C)C(=O)N1C` [ALISPORIVIR] has an IC50 [1] of 6.25 µM, an IC50 (Hepatitis C virus) of 0.22 µM and an IC50 (cells) of 0.82 µM. It also gave an IC50 (Human betaherpesvirus 5) of 6.1 µM, a CC50 [2] of 8.2 µM and an IC50 [3] of 0.01 µM. For the same compound, the IC50 [4] was 0.01 µM, the Activity (Rattus norvegicus [5]) was 52.4% and the TC50 [6] was 0.6 µM. It also gave an IC50 [7] of 0.016 µM, an IC50 (Human alphaherpesvirus 3) of 2.5 µM and an IC50 [8] of 5.65 µM. It also gave an IC50 [9] of 0.015 µM, a deltaA (Rattus norvegicus [10]) of 0.78 and an IC50 (SARS-CoV) of 7.7 µM. For the same compound, the Activity (Rattus norvegicus [11]) was 29.8%, the IC50 (Influenza B virus) was over 9.9 µM and the Activity (Rattus norvegicus [12]) was 50%. For the same compound, the CC50 [13] was 0.4 µM, the Activity [14] was “Active” and the IC50 [15] was 0.012 µM. The CC50 [16] was 6.5 µM, the inhibition (Jurkat) was “Active” and the IC50 [17] was 0.063 µM. For the same compound, the CC50 [18] was 9.9 µM, the IC50 (Vaccinia virus) was over 25 µM and the Activity (Rattus norvegicus [19]) was 18%. For the same compound, the inhibition [20] was “Active”, the CC50 [21] was 10.6 µM and the IC50 (Human alphaherpesvirus 1 [22]) was over 25 µM. It also gave an IC50 [23] of 0.015 µM, a CC50 [24] of 25 µM and an IC50 (Human alphaherpesvirus 2) of over 25 µM. It also gave an IC50 [25] of 5.53 µM, an IC50 [26] of 3.53 µM and an IC50 [27] of 0.099 µM. For the same compound, the CC50 [28] was 3.3 µM, the Activity (MT4) was “Non-toxic” and the IC50 [29] was over 25 µM. The IC50 (Human alphaherpesvirus 1 [30]) was over 25 µM.
